Assay results taken from US7265152B2 (ViroPharma Incorporated, priority 2002, dated 2007).
pEC50, pIC50: −log10 of the molar value.

Columns and labels:
[1] = tested on: HCV replicon (BB7 sequence) in Huh-7-Clone A cells; experiment: HCV replicon assay: ELISA of NS5A protein in replicon-containing cells (Inhibition of Viral RNA Replication); type: cell-based; details: Hepatitis C virus; HCV replicon, range of EC50; read-out: Replicon
In short: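 EC50 taken from an 8-point serially diluted dose curve, with NS5A level as read-out: fixed cells probed with primary monoclonal and HRP-conjugated secondary, TMB developed 30 min, OD 650 nm. Compound exposure 72 h in Huh-7-Clone A replicon cells (BB7 sequence).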

HCV NS5B = molecular target: T1, HCV NS5B (Hepatitis C virus genotype 1b, UniProt Q9WMX2); experiment: Inhibition of viral RNA-dependent RNA polymerase (RdRp), in vitro biochemical assay; design: species or system HCV genotype 1b virus (BB7); details: HCV NS5B RdRp, BB7; reported as range class; read-out: HCV pol-BB7 IC50
T1 construct: fusion protein, of which the carboxyl terminal 21 amino acids were removed to enhance its solubility; His tag (GSHHHHHH); made in house; host or cells: E. coli
In short: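 IC50 values are the concentrations that halve in vitro RNA synthesis by HCV NS5B polymerase. The enzyme was a C-terminally truncated (Δ21), His-tagged genotype 1b (BB7 consensus) protein purified from E. coli.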

Row | Structure (SMILES) | pEC50 [1] | pIC50 (HCV NS5B)
1 | CNC(=O)c1c(-c2ccc(F)cc2)oc2cc(N3CCOCC3)c(OCc3c(C)noc3C)cc12 [Example 217, 5-(3,5-Dimethyl-isoxazol-4-ylmethoxy)-2-(4-fluoro-phenyl)-6-morpholin-4-yl-benzofuran-3-carboxylic acid methylamide] | > 5.00 | 5.30 to 6.30
2 | CNC(=O)c1c(-c2ccc(F)cc2)oc2cc(N3CCOCC3)c(OCc3cc(C)on3)cc12 [Example 218, 2-(4-Fluoro-phenyl)-5-(5-methyl-isoxazol-3-ylmethoxy)-6-morpholin-4-yl-benzofuran-3-carboxylic acid methylamide] | > 6.00 | ≥ 6.30
3 | CNC(=O)c1c(-c2ccc(F)cc2)oc2cc(-c3nccs3)c(OC(C)C)cc12 [Example 219, 2-(4-Fluoro-phenyl)-5-isopropoxy-6-thiazol-2-yl-benzofuran-3-carboxylic acid methylamide] | > 5.00 | ≥ 6.30
4 | CNC(=O)c1c(-c2ccc(F)cc2)oc2cc(-c3ccc[nH]3)c(OC(C)C)cc12 [Example 220, 2-(4-Fluoro-phenyl)-5-isopropoxy-6-(1H-pyrrol-2-yl)-benzofuran-3-carboxylic acid methylamide] | > 5.00 | ≥ 6.30
5 | CNC(=O)c1c(-c2ccc(F)cc2)oc2cc(N(C(C)C)S(C)(=O)=O)c(OC)cc12 [Example 221, 2-(4-Fluoro-phenyl)-6-(isopropyl-methanesulfonyl-amino)-5-methoxy-benzofuran-3-carboxylic acid methylamide] | > 6.00 | ≥ 6.30
6 | CNC(=O)c1c(-c2ccc(F)cc2)oc2cc(C(C)O)c(OC(C)C)cc12 (centres unmarked) [Example 222, 2-(4-Fluoro-phenyl)-6-(1-hydroxy-ethyl)-5-isopropoxy-benzofuran-3-carboxylic acid methylamide] | > 6.00 | ≥ 6.30
7 | CNC(=O)c1c(-c2ccc(F)cc2)oc2cc(CN3CCOCC3)c(OC(C)C)cc12 [Example 223, 2-(4-Fluoro-phenyl)-5-isopropoxy-6-morpholin-4-ylmethyl-benzofuran-3-carboxylic acid methylamide] | > 5.00 | 4.52 to 5.30
8 | CNC(=O)c1c(-c2ccc(F)cc2)oc2cc(CO)c(OC(C)C)cc12 [Example 224, 2-(4-Fluoro-phenyl)-6-hydroxymethyl-5-isopropoxy-benzofuran-3-carboxylic acid methylamide] | > 5.00 | ≥ 6.30
9 | CNC(=O)c1c(-c2ccc(F)cc2)oc2cc(N3CCOCC3)c(OCc3cnc[nH]3)cc12 [Example 225, 2-(4-Fluoro-phenyl)-5-(3H-imidazol-4-ylmethoxy)-6-morpholin-4-yl-benzofuran-3-carboxylic acid methylamide] | > 5.00 | ≥ 6.30
10 | CNC(=O)c1c(-c2ccc(F)cc2)oc2cc(N3CCOCC3)c(OCCOC)cc12 [Example 226, 2-(4-Fluoro-phenyl)-5-(2-methoxy-ethoxy)-6-morpholin-4-yl-benzofuran-3-carboxylic acid methylamide] | > 6.00 | ≥ 6.30
11 | CNC(=O)c1c(-c2ccc(F)cc2)oc2cc(-c3cncs3)c(OC(C)C)cc12 [Example 227, 2-(4-Fluoro-phenyl)-5-isopropoxy-6-thiazol-5-yl-benzofuran-3-carboxylic acid methylamide] | > 6.00 | ≥ 6.30
12 | CNC(=O)c1c(-c2ccc(F)cc2)oc2cc(N3CCOCC3)c(OCc3nn(C)cc3Cl)cc12 [Example 228, 5-(4-Chloro-1-methyl-1H-pyrazol-3-ylmethoxy)-2-(4-fluoro-phenyl)-6-morpholin-4-yl-benzofuran-3-carboxylic acid methylamide] | > 6.00 | ≥ 6.30
13 | CNC(=O)c1c(-c2ccc(F)cc2)oc2cc(N3CCOCC3)c(OC(C)C#N)cc12 (centres unmarked) [Example 229, 5-(Cyano-methyl-methoxy)-2-(4-fluoro-phenyl)-6-morpholin-4-yl-benzofuran-3-carboxylic acid methylamide] | > 5.00 | ≥ 6.30
14 | CNC(=O)c1c(-c2ccc(F)cc2)oc2cc(-c3ccn[nH]3)c(OC(C)C)cc12 [Example 230, 2-(4-Fluoro-phenyl)-5-isopropoxy-6-(2H-pyrazol-3-yl)-benzofuran-3-carboxylic acid methylamide] | > 5.00 | ≥ 6.30
15 | CNC(=O)c1c(-c2ccc(F)cc2)oc2cc(-c3ccnn3C)c(OC(C)C)cc12 [Example 231, 2-(4-Fluoro-phenyl)-5-isopropoxy-6-(2-methyl-2H-pyrazol-3-yl)-benzofuran-3-carboxylic acid methylamide] | > 6.00 | ≥ 6.30
16 | CNC(=O)c1c(-c2ccc(F)cc2)oc2cc(-c3ccn(C)n3)c(OC(C)C)cc12 [Example 232, 2-(4-Fluoro-phenyl)-5-isopropoxy-6-(1-methyl-1H-pyrazol-3-yl)-benzofuran-3-carboxylic acid methylamide] | > 5.00 | 5.30 to 6.30

Row | Structure (SMILES) | pEC50 [1] | pIC50 (HCV NS5B)
17 | CNC(=O)c1c(-c2ccc(F)cc2)oc2cc(-c3cc(C)no3)c(OC(C)C)cc12 [Example 233, 2-(4-Fluoro-phenyl)-5-isopropoxy-6-(3-methyl-isoxazol-5-yl)-benzofuran-3-carboxylic acid methylamide] | > 4.52 | ≥ 6.30
18 | CNC(=O)c1c(-c2ccc(F)cc2)oc2cc(N(Cc3nsc(Cl)n3)S(C)(=O)=O)c(OC(C)C)cc12 [Example 234, 6-[(5-Chloro-[1,2,4]thiadiazol-3-ylmethyl)-methanesulfonyl-amino]-2-(4-fluoro-phenyl)-5-isopropoxy-benzofuran-3-carboxylic acid methylamide] | > 5.00 | ≥ 6.30
19 | CNC(=O)c1c(-c2ccc(F)cc2)oc2cc(Nc3c(C)noc3C)c(OC(C)C)cc12 [Example 235, 6-(3,5-Dimethyl-isoxazol-4-ylamino)-2-(4-fluoro-phenyl)-5-isopropoxy-benzofuran-3-carboxylic acid methylamide] | < 4.52 | 4.52 to 5.30
20 | CNC(=O)c1c(-c2ccc(F)cc2)oc2cc(-c3cccnc3)c(OC)cc12 [Example 236, 2-(4-Fluoro-phenyl)-5-methoxy-6-pyridin-3-yl-benzofuran-3-carboxylic acid methylamide] | > 6.00 | ≥ 6.30
21 | CNC(=O)c1c(-c2ccc(F)cc2)oc2cc(CN(C)C)c(OC(C)C)cc12 [Example 237, 6-Dimethylaminomethyl-2-(4-fluoro-phenyl)-5-isopropoxybenzofuran 3-carboxylic acid methylamide] | > 4.52 | 4.52 to 5.30
22 | CNC(=O)c1c(-c2ccc(F)cc2)oc2cc(C(O)C(C)C)c(OC(C)C)cc12 (centres unmarked) [Example 238, 2-(4-Fluoro-phenyl)-6-(1-hydroxy-2-methyl-propyl)-5-isopropoxy-benzofuran-3-carboxylic acid methylamide] | > 6.00 | ≥ 6.30
23 | CNC(=O)c1c(-c2ccc(F)cc2)oc2cc(-c3cn[nH]c3)c(OC(C)C)cc12 [Example 239, 2-(4-Fluoro-phenyl)-5-isopropoxy-6-(1H-pyrazol-4-yl)-benzofuran-3-carboxylic acid methylamide] | > 5.00 | 4.52 to 5.30
24 | CNC(=O)c1c(-c2ccc(F)cc2)oc2cc(N(CCOC)S(C)(=O)=O)c(OC)cc12 [Example 240, 2-(4-Fluoro-phenyl)-6-[methanesulfonyl-(2-methoxy-ethyl)-amino]-5-methoxy-benzofuran-3-carboxylic acid methylamide] | > 6.00 | ≥ 6.30
25 | CNC(=O)c1c(-c2ccc(F)cc2)oc2cc(-c3cc(C4CC4)no3)c(OC(C)C)cc12 [Example 241, 6-(3-Cyclopropyl-isoxazol-5-yl)-2-(4-fluoro-phenyl)-5-isopropoxy-benzofuran-3-carboxylic acid methylamide] | > 5.00 | 5.30 to 6.30
26 | CNC(=O)c1c(-c2ccc(F)cc2)oc2cc(-c3cc(COC)no3)c(OC(C)C)cc12 [Example 242, 2-(4-Fluoro-phenyl)-5-isopropoxy-6-(3-methoxymethyl-isoxazol-5-yl)-benzofuran-3-carboxylic acid methylamide] | 4.52 | 5.30 to 6.30
27 | CNC(=O)c1c(-c2ccc(F)cc2)oc2cc(NS(C)(=O)=O)ccc12 [Example 243, 2-(4-Fluoro-phenyl)-6-methanesulfonylamino-benzofuran-3-carboxylic acid methylamide] | > 5.00 | 5.30 to 6.30
28 | CNC(=O)c1c(-c2ccc(F)cc2)oc2cc(-c3ncc[nH]3)c(OC(C)C)cc12 [Example 244, 2-(4-Fluoro-phenyl)-6-(1H-imidazol-2-yl)-5-isopropoxy-benzofuran-3-carboxylic acid methylamide] | > 6.00 | ≥ 6.30
29 | CNC(=O)c1c(-c2ccc(F)cc2)oc2cc(-c3cc(C)nn3C)c(OC(C)C)cc12 [Example 245, 6-(2,5-Dimethyl-2H-pyrazol-3-y1)-2-(4-fluoro-phenyl)-5-isopropoxybenzofuran 3-carboxylic acid methylamide] | > 5.00 | 5.30 to 6.30
30 | CNC(=O)c1c(-c2ccc(F)cc2)oc2cc(-c3c(C)n[nH]c3C)c(OC(C)C)cc12 [Example 246, 6-(3,5-Dimethyl-1H-pyrazol-4-yl)-2-(4-fluoro-phenyl)-5-isopropoxy-benzofuran-3-carboxylic acid methylamide] | > 6.00 | ≥ 6.30
31 | CNC(=O)c1c(-c2ccc(F)cc2)oc2cc(-c3cc(C)n[nH]3)c(OC(C)C)cc12 [Example 247, 2-(4-Fluoro-phenyl)-5-isopropoxy-6-(5-methyl-2H-pyrazol-3-yl)-benzofuran-3-carboxylic acid methylamide] | > 5.00 | 5.30 to 6.30
